The text below walks through data of PubChem BioAssay AID610 (The Scripps Research Institute Molecular Screening Center, 2007).

Active and inactive are the calls of the source. How the calls were made is not given here.

Nuclear receptor ROR-alpha (Homo sapiens), sequence (P35398 whole entry, looked up): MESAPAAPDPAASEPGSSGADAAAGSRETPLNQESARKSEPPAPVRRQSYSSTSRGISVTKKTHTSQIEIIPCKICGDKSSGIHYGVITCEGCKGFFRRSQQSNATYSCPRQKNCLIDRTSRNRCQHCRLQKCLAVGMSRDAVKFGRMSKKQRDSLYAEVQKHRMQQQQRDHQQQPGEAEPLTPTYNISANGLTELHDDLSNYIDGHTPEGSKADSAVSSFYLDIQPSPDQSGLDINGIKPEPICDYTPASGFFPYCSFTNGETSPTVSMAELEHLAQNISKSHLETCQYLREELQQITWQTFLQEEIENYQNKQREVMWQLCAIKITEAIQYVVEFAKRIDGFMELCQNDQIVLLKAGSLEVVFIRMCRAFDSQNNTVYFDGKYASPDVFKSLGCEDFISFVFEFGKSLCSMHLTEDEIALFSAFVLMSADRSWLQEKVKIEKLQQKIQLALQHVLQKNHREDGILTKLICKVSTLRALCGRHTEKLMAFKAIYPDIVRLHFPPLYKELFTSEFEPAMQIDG

The test has as its target Nuclear receptor ROR-alpha (Homo sapiens) (UniProt P35398). The test can be described thus: inhibitors of orphan receptor RORA, dose response, cell-based (AID 610). The following applies: cell-based RORA reporter, inhibition.
Turning to `O=S(=O)(c1ccc2c(c1)C(=NO)c1cc(S(=O)(=O)N3CCCCC3)ccc1-2)N1CCCCC1`, the IC50 is 2480 nM.
In the case of `O=C(/C=C\Nc1ccc2c(c1)OCO2)c1ccccn1`, the IC50 is 1520 nM.
Turning to `CC(=O)CC1OC(=O)C(Br)=C1NCc1ccccc1` (centres undefined), the IC50 result was “inactive”.
With `COC(=O)C1=C(CN2CCCc3ccccc32)NC(=O)NC1c1ccc(F)cc1` (centres undefined), the half-maximal inhibitory concentration (IC50) is 6230 nM.
As for `Cc1ccc(C(=O)/C=C/Nc2ccccn2)cc1`, the IC50 was 2090 nM.
With `O=C(O)CCCCCN1C(=O)CSC1=S`, the IC50 is > 99000 nM (inactive).
For `COc1cccc2sc(Nc3nc(-c4ccccn4)cs3)nc12` the value was 4560 nM.
Consider `O=C(/C=C\Nc1ccccn1)c1ccc(Cl)cc1`, for which the IC50 was 8350 nM.
Take `COc1cc(/C=N/O)ccc1OCc1ccc(C(=O)O)cc1`: the IC50 was 670 nM.
